The values below come from patent US20230002327A1, “SMALL-MOLECULE REGULATOR OF TLR8” (TSINGHUA UNIVERSITY, priority 2019, published 2023).

One series relates to HEK-Blue hTLR8 cell line. Nature of the series: Toxicity test of compounds (CCK-8 cell viability). In kind it is cell-based, human. Also on record: key to WST1 (normalized toxicity effect): viability relative to control well (background-subtracted OD), 1 = control. To be noted: normalized cell viability, HEK-Blue cell lines. How it is done:
In the 96-well plate used for the above-mentioned activity test of compounds (remaining 50 μL of culture medium containing cells), 5 μL of CellCountingKit-8 (CCK-8) Supermix was added to each well. Note that the introduction of air bubbles into the wells should be avoided since the air bubbles would interfere with the detection of OD value.
The culture plate was incubated in an incubator for 1 to 4 hours,
The edge of the 96-well plate could be tapped gently before reading the plate, and then the absorbance at 450 nm was measured by using the multi-mode plate reader.
Cell viability (%) was determined using the following formula: cell viability (%)=([Compound well ([…])−Background well (OD450)]/[Control well ([…])−Background well (OD450)])×100%. Among these, the background well was only added with the medium and CCK-8 reagent, the control well was only added with the medium, cells, R848 and CCK-8, and the compound wells were added with the medium, cells, R848, compounds in different concentrations, and CCK-8.

The target in a further series is T1, TLR7 (Homo sapiens, UniProt Q9NYK1).
T1 construct: host or cells: HEK-Blue hTLR7 (HEK293-derived SEAP reporter cells)
T1 sequence (Q9NYK1 27-1049): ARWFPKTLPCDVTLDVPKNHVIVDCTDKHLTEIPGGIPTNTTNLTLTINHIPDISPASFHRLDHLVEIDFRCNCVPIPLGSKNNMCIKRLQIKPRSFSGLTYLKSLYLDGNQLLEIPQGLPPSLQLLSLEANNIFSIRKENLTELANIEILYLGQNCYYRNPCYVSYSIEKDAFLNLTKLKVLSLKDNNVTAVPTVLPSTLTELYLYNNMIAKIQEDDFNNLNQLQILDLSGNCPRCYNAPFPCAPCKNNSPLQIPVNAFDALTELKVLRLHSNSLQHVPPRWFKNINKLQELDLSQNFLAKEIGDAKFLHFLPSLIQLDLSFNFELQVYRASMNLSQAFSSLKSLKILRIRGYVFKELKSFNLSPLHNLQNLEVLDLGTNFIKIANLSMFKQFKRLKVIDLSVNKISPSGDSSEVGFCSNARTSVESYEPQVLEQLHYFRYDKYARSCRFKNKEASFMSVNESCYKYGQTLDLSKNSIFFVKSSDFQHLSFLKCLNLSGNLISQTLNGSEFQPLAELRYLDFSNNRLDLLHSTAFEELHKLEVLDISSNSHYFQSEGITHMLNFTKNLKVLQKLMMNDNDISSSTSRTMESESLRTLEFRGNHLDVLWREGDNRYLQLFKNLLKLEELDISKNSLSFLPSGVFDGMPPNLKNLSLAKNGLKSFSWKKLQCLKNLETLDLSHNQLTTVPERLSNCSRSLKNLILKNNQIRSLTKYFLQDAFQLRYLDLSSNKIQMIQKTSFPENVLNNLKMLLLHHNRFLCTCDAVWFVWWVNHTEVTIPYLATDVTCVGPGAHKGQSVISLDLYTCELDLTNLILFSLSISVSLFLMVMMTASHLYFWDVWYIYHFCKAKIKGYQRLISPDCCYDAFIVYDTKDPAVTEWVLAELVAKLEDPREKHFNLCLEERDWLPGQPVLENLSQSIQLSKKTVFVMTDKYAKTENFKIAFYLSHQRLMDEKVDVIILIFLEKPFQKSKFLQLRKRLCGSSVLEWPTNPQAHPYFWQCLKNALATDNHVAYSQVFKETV
Nature of the series: Inhibition of R848-induced signaling in HEK-Blue hTLR7 cell line (Quanti-Blue). It counts as cell-based. As to the method: (§1) HEK Blue hTLR8 cells or HEK Blue hTLR7 cells were cultured in DMEM medium supplemented with 10% fetal bovine serum, penicillin (100 U/mL) and streptomycin ([…]). Thereafter, cells were seeded in 96-well plate (45,000 cells per well), and were cultured for 24 hours in a humidified incubator (37° C., 5% CO2).
After 24 hours, the supernatant and suspending cells were aspirated and replaced with fresh serum-free DMEM. Cells were treated with 1 μg/mL of R848 (agonist of TLR7/8) or 5 μg/mL of ssRNA40/LyoVec or 5 μg/mL of ORN06/LyoVec (InvivoGen) and compounds with specified concentrations, and were placed in a humidified incubator (37° C., 5% CO2) for co-culture.
(§2) After 24 hours, 50 μL of the medium was aspirated from each well and then added to a new 96-well plate, followed by the addition of 50 μL of Quanti-Blue in each well and the incubation at 37° C. in darkness. Changes in color would occur in the […] within 60 minutes, and the absorbance was measured at 620 nm by using the multi-mode plate reader Vrioskan Flash. Inhibition rate (%)=[R848 (OD620)−Compound (OD620)]/[R848 (OD620)−Control (OD620)]×100%. Among these, the control group was only added with the same amount of cells. Finally, the software Prism 6.0 was utilized to plot a graph and calculate IC50 values. Or, the activity of the cells treated with ligand and DMSO was defined as 100% activity, and the activity of the untreated cells was defined as 0% activity.

In the next series the target is T2, TLR8 (Homo sapiens, UniProt Q9NR97).
T2 construct: host or cells: HEK-Blue hTLR8 (HEK293-derived SEAP reporter cells)
T2 sequence (Q9NR97 27-1041): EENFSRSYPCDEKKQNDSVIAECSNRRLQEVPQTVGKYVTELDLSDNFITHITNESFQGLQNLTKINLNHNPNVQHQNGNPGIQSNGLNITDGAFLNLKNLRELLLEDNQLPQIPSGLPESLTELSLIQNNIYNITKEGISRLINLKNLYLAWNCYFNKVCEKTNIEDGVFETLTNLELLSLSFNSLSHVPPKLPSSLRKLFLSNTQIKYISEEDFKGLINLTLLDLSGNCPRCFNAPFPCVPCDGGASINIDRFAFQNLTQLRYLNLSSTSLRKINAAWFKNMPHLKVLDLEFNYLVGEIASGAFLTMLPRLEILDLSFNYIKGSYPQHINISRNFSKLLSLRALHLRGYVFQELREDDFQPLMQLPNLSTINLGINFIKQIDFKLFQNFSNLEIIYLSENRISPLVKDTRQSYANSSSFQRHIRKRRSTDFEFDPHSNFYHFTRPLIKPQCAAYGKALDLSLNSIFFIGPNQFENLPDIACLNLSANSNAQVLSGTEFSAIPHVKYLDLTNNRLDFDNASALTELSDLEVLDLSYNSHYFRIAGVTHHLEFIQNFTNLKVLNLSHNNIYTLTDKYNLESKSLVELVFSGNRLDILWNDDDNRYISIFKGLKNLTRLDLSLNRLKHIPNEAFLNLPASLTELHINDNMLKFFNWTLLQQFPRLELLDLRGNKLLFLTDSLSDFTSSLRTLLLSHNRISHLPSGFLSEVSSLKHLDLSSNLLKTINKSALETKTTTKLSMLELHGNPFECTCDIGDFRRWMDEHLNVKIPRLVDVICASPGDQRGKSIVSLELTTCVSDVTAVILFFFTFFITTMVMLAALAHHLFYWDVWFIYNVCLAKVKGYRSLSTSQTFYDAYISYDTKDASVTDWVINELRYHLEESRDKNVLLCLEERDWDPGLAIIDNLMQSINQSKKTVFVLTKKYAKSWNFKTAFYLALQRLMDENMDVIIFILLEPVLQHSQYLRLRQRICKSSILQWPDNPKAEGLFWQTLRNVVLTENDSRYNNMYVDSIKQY
Nature of the series: Inhibition of R848-induced signaling in HEK-Blue hTLR8 cell line (Quanti-Blue). To be noted: HEK-Blue hTLR8 cell line; normalized, ligand+DMSO = 100% activity, untreated = 0%. It counts as cell-based. As to the method:
as §1
After 24 hours, the supernatant and suspending cells were aspirated and replaced with fresh serum-free DMEM.
as §2

Each structure is given as a SMILES string.

Turning to `CCOCc1nc(Br)c(-c2ccccc2)n1CC(C)C` [Compound 57, 4-bromo-2-(ethoxymethyl)-1-(2-methylpropyl)-5-phenyl-1H-imidazole], in the series on HEK-Blue hTLR8 cell line, the “WST1 (normalized toxicity effect)” value was determined as 0.7 ± 0.1. At TLR7, the “TLR7 (normalized inhibitory effect on R848-induced signaling)” value came out at 0.1 ± 0.1. Besides, at TLR8, the “Remaining R848-induced TLR8 signaling (normalized activity; ligand+DMSO = 1, untreated = 0)” value was 0.01 ± 0.01.
Regarding `CCOCc1nc(C(C)C)c(-c2ccccc2)n1CC(C)(C)O` [Compound 48, 1-[2-(ethoxymethyl)-5-phenyl-4-(prop-2-yl)-1H-imidazole-1-yl]-2-methylpropan-2-ol], the “WST1 (normalized toxicity effect)” value in the series on HEK-Blue hTLR8 cell line amounted to 0.8 ± 0.3. Also, at TLR7, the “TLR7 (normalized inhibitory effect on R848-induced signaling)” value came out at 0.7 ± 0.1. The “Remaining R848-induced TLR8 signaling (normalized activity; ligand+DMSO = 1, untreated = 0)” value on TLR8 is listed as 0.9 ± 0.2.
On to `CCOCc1nc(CF)c(-c2ccccc2)n1CC(C)(C)O` [Compound 46, 1-[2-(ethoxymethyl)-4-(fluoromethyl)-5-phenyl-1H-imidazole-1-yl]-2-methylpropan-2-ol], for which the “WST1 (normalized toxicity effect)” value with HEK-Blue hTLR8 cell line is given as 0.9 ± 0.3. For the same molecule, the “TLR7 (normalized inhibitory effect on R848-induced signaling)” value on TLR7 is listed as 0.8 ± 0.2. In addition, the “Remaining R848-induced TLR8 signaling (normalized activity; ligand+DMSO = 1, untreated = 0)” value at TLR8 stood at 1.0 ± 0.2.
For the molecule `CCOCc1nc(I)c(-c2ccc(C)cc2)n1CC(C)(C)O` [Compound 64, 1-(2-(ethoxymethyl)-4-iodo-5-(p-tolyl)-1H-imidazole-1-yl)-2-methylpropan-2-ol], the “WST1 (normalized toxicity effect)” value in the series with HEK-Blue hTLR8 cell line turned out to be 1.1 ± 0.1. Further, on TLR7, the “TLR7 (normalized inhibitory effect on R848-induced signaling)” value is listed as 0.9 ± 0.2. In addition, the “Remaining R848-induced TLR8 signaling (normalized activity; ligand+DMSO = 1, untreated = 0)” value at TLR8 turned out to be 0.9 ± 0.1.
For `CCOCc1nc(COC)c(-c2ccccc2)n1CC(C)(C)O` [Compound 44, 1-[2-(ethoxymethyl)-4-(methoxymethyl)-5-phenyl-1H-imidazole-1-yl]-2-methylpropan-2-ol], in that order: 0.8 ± 0.2, 0.9 ± 0.2 and 1.0 ± 0.3.
Turning to `CCOCc1nc(C(=O)OC)c(-c2ccccc2)n1CC(C)(C)O` [Compound 42, methyl 2-(ethoxymethyl)-1-(2-hydroxy-2-methylpropyl)-5-phenyl-1H-imidazole-4-carboxylate], in the series with HEK-Blue hTLR8 cell line, the “WST1 (normalized toxicity effect)” value was 0.9 ± 0.1. Further, the “TLR7 (normalized inhibitory effect on R848-induced signaling)” value on TLR7 is given as 0.9 ± 0.2. The “Remaining R848-induced TLR8 signaling (normalized activity; ligand+DMSO = 1, untreated = 0)” value at TLR8 is reported as 0.9 ± 0.2.
Turning to `CCOCc1nc(C(N)=O)c(-c2ccccc2)n1CC(C)(C)O` [Compound 40, 2-(ethoxymethyl)-1-(2-hydroxy-2-methylpropyl)-5-phenyl-1H-imidazole-4-carboxamide], the “WST1 (normalized toxicity effect)” value in the series on HEK-Blue hTLR8 cell line stood at 0.8 ± 0.3. Moreover, the “TLR7 (normalized inhibitory effect on R848-induced signaling)” value at TLR7 was found to be 1.0 ± 0.1. Also, the “Remaining R848-induced TLR8 signaling (normalized activity; ligand+DMSO = 1, untreated = 0)” value at TLR8 came out at 0.7 ± 0.1.
The like results for `CCOCc1nc(I)c(-c2cccc(-c3ccccc3)c2)n1CC(C)(C)O` [Compound 61, 1-(5-([1,1′-biphenyl]-3-yl)-2-(ethoxymethyl)-4-iodo-1H-imidazole-1-yl)-2-methylpropan-2-ol] were, in that order, 0.9 ± 0.2, 0.9 ± 0.1 and 0.01 ± 0.01.
As for `CCOCc1nc(C#N)c(-c2ccccc2)n1CC(C)(C)O` [Compound 38, 2-(ethoxymethyl)-1-(2-hydroxy-2-methylpropyl)-5-phenyl-1H-imidazole-4-carbonitrile], the “WST1 (normalized toxicity effect)” value in the series with HEK-Blue hTLR8 cell line is 0.7 ± 0.3. Also, the “TLR7 (normalized inhibitory effect on R848-induced signaling)” value on TLR7 worked out at 1.0 ± 0.2. Also, the “Remaining R848-induced TLR8 signaling (normalized activity; ligand+DMSO = 1, untreated = 0)” value at TLR8 was 1.1 ± 0.2.
As to `CCOCc1nc(I)c(-c2cccc3ccccc23)n1CC(C)(C)O` [Compound 62, 1-(2-(ethoxymethyl)-4-iodo-5-(naphthalen-1-yl)-1H-imidazole-1-yl)-2-methylpropan-2-ol], the “WST1 (normalized toxicity effect)” value in the series on HEK-Blue hTLR8 cell line came out at 0.8 ± 0.1. Also, the “TLR7 (normalized inhibitory effect on R848-induced signaling)” value at TLR7 came to 0.9 ± 0.1. Besides, the “Remaining R848-induced TLR8 signaling (normalized activity; ligand+DMSO = 1, untreated = 0)” value on TLR8 stood at 0.06 ± 0.1.
As to `CCOCc1nc(C=O)c(-c2ccccc2)n1CC(C)(C)O` [Compound 41, 2-(ethoxymethyl)-1-(2-hydroxy-2-methylpropyl)-5-phenyl-1H-imidazole-4-carbaldehyde], the “WST1 (normalized toxicity effect)” value in the series on HEK-Blue hTLR8 cell line was found to be 0.7 ± 0.2. Moreover, the “TLR7 (normalized inhibitory effect on R848-induced signaling)” value on TLR7 is given as 1.1 ± 0.2. Further, on TLR8, the “Remaining R848-induced TLR8 signaling (normalized activity; ligand+DMSO = 1, untreated = 0)” value is listed as 1.2 + 0.2.
